The conditions of data set [1]: cited from earlier work.
A short description of a further data set: Solubility. In kind it is physicochemical. The following applies: 260 μM.
Data set [2] concerns human malignant U373 glioma cells. Nature of the data set: Cell viability / cell death (MTT test, propidium iodide, annexin-V-Alexa 568 binding, FACS scatter morphology). Conditions: 260 μM in 0.1% DMSO/PBS, 20 min, substance alone. The procedure:
Human malignant U373-glioma cells were grown to 70% confluency in RPMI-1640 Ready Mix Medium containing L-Glutamine and 10% FBS-Gold (PAA laboratories, Pasching, Austria) at 37° C., 5% CO2 (vol/vol), in 4-well-plates (NUNC, Wiesbaden, Germany) with about 300,000 cells pro well. […] After this, the cells were washed three times with buffer and then incubated with Ready Mix Medium again. Cell viability was then assessed by the addition of methyl-thiazoyl-tetrazolium (MTT) salt (Sigma-Aldrich, Germany) at a concentration of 15 mg/ml. After 20 minutes, the production of formazan was investigated. When blue formazan granules were detected, propidium iodine (PI) was added to the medium (1 μM PI; Molecular Probes, Eugene, Oreg., USA) to detect cells with damaged cell membranes. […] Pictures were taken with a 3-CCD color video camera (MC3254P, Sony, Japan) and the Axiovision Software (Carl Zeiss, Jena, Germany). The intensity of cell fluorescence was recorded at the exposure time necessary for the production of the fluorescence images.
After imaging, Accutase™ (PAA laboratories, Pasching, Austria) was added to the wells to achieve detachment of the cells for further FACS analysis. Fluorescence was measured in a Becton Dickinson FACSCalibur. A total of 20,000 events per sample were analyzed. The investigations were performed in triplicate.
A sample of cells from each Eppendorf tube was subjected to the MTT test (described under 1.4) to determine microscopically whether the cells were viable. In vitro CT of the cell pellets was performed with a Somatom Sensation 16 (Siemens) which is used for routine clinical investigations.
Cells were incubated for 20 minutes with each of the conjugates dissolved in 0.1% DMSO/PBS at 260 μm. The cells were also incubated with TIBA and both of the non-TIBA-containing conjugates (3 and 4) separately in 0.1% DMSO/OBS at 260 μm. Both TIBA and the conjugates were dissolved in 0.1% DMSO/PBS at 260 μm for incubation due to the insolubility of TIBA (but not the conjugates) in pure PBS. As controls, the cells were incubated with PBS alone, 0.1% DMSO/PBS alone, and TIBA alone (260 μm in 0.1% DMSO/PBS).
The detection of phosphatidyl serine in the outer membrane leaflet of apoptotic cells was performed with the Annexin-V-Alexa™-568-reagent according to manufacturer's protocol (Roche Molecular Biochemicals, Indianapolis, USA). The confocal laser-scanning microscopy was performed on an inverted LSM 510 laser-scanning microscope (Carl Zeiss, Jena, Germany) (objectives: LD Achroplan 40×0.6, Plan Neofluar 20×0.50, 40×0.75). For fluorescence excitation, the 488 nm line of an argon-ion laser and the […] line of a helium-neon laser with appropriate beam splitters and barrier filters were used for FITC and Alexa respectively. Superimposed images of FITC- and Alexa-stained samples were created by overlaying coincident views. All measurements were performed on living, non-fixed cells.
Human malignant LN18 and U373 glioma cells were cultivated in four-well plates (NUNC, Wiesbaden, Germany) (about 300,000 cells per well) as described under 1.5. […] The cells were also coincubated either with CIBA, FIBA or TBPI as well as the NLS-FITC conjugate 3 (each 260 μM). As a control cells were used which were only incubated either with CIBA, FIBA or TBPI (260 μM in PBS) alone. After the incubation the cells were washed three times with PBS and in the following again incubated in Ready Mix Medium. The FITC-labelled conjugates and the Alexa-Annexin for the detection of phosphatidylserine as a signal of the cell death were localized with the confocal laser microscopy (CLSM) as in 1.6.1. All measurements were performed on living cells.
(Formazan colour is commonly taken as a measure of viable cells.)

Data set [3] shares this test system. Nature of the data set: Computer tomography, signal density of cell pellets. Conditions: 260 μM, 20 min. The format is cell-based. As for the experimental part: For CT and FACS human U373 glioma cells were grown under the same conditions in 75 cm^2 culture flasks (Corning Costar, Bodenheim, Germany) (70% confluency). Accutase™ (PAA laboratories, Pasching, Austria) was added to achieve detachment of the cells which were harvested and subsequently aliquoted into Eppendorf tubes (6×10^6 cells per tube). As in the investigations performed by fluorescence microscopy, the cells in the first tube served as a control (PBS only). The cells in the other tubes were incubated with 260 μM Ultravist, 260 μM TIBA in PBS and 26 μM, 260 μM and 2.6 mM conjugates 1-4 in PBS. After a 20 minute incubation period at 37° C. in an atmosphere of 5% CO2, the cells were washed three times in PBS and centrifuged at 800 rpm for 5 minutes.
The inner ear spiral CT protocol consisted of: tube voltage 120 KV, effective mAs 550, time of imaging TI: 1.5, SL 0.75/0.75/4.5, FOV: 50 0/52, kernel: U70, window: intervertebral disc.
3D-images were obtained using InSpace Software (Syngo CT 2006G) (Siemens AG, Erlangen, Germany).
After an incubation of 20 minutes at 37° C./5% CO2 the cells were washed three times with PBS buffer and centrifuged at 800 rpm (rounds per minute) for 5 minutes. The fluorescence was measured in Becton Dickinson FACSCalibur as described under 1.4. The computer tomography was performed as described under 1.5.1. The examinations were repeated two times. […]
An Orbita CT spiral was used: tube voltage 120 KV, effective mAs 550, time of imaging TI: 1.5, SL 0.75/0.75/4.5, FOV: 50 0/52, GT: 0.0, kernel: U70, window: intervertebral disc. 3D images were made with the InSpace Software (Syngo CT 2006G) (Siemens AG, Erlangen, Germany). […]

“Also recorded” adds a separate entry of the source.

For `O=C(O)c1cc(I)cc(I)c1I` [TIBA, 2,3,5-triiodobenzoic acid, reference compound], in data set [1], the solubility in water entry is reported as “does not dissolve in water”. In the data set “Solubility”, the “solubility in pure PBS” value is “insolubility”. The “binding of annexin-V-Alexa 568 reagent (phosphatidyl serine) / cytotoxic effects” value in data set [2] was “did not result in binding; also recorded: did not appear to produce any cytotoxic effects”. The “CT signal density of cell pellets” value in data set [3] is listed as “only low signal density values; also recorded: did not result in any increase in signal density”.
